Tested on: Influenza A/WSN/33-Luciferase virus
Assay: microbe, parasite or virus in culture
Format: cell-based
Conditions: A549, 72 h, luciferase signal three days later, read-out: IC50 antiviral activity (Luciferase reporter assay)

SMILES	IC50 [µM]
O=C(O)COCCn1cccc(Nc2nn(-c3ccc(OC(F)(F)F)cc3)c(=O)c3ccccc23)c1=O [Example 112, 2-[2-[2-oxo-3-[[4-oxo-3-[4-(trifluoromethoxy)phenyl]phthalazin-1-yl]amino]-1-pyridyl]ethoxy]acetic acid]	2.99
CCc1cc(Nc2nn(-c3ccc(OC(F)(F)F)cc3)c(=O)c3c2CCC3)c(=O)n(C)c1 [Example 35, 1-[(5-ethyl-1-methyl-2-oxo-3-pyridyl)amino]-3-[4-(trifluoromethoxy)phenyl]-6,7-dihydro-5H-cyclopenta[d]pyridazin-4-one]	0.068
Cn1cccc(Nc2nn(-c3ccc(OC(F)(F)F)cc3)c(=O)c3c2CCN(C=O)C3)c1=O [Example 155, 1-[(1-Methyl-2-oxo-3-pyridyl)amino]-4-oxo-3-[4-(trifluoromethoxy)phenyl]-7,8-dihydro-5H-pyrido[3,4-d]pyridazine-6-carbaldehyde]	0.086
COC(=O)CCCn1cccc(Nc2nn(-c3ccc(OC(F)(F)F)cc3)c(=O)c3ccccc23)c1=O [Example 73, methyl 4-[2-oxo-3-[[4-oxo-3-[4-(trifluoromethoxy)phenyl]phthalazin-1-yl]amino]-1-pyridyl]butanoate]	0.049
Cn1cccc(Nc2nn(-c3ccc(C(C)(C)C)nc3)c(=O)c3ccccc23)c1=O [Example 8, 2-(6-tert-butyl-3-pyridyl)-4-[(1-methyl-2-oxo-3-pyridyl)amino]phthalazin-1-one]	0.073
CNC(=O)Cn1cccc(Nc2nn(-c3ccc(OC(F)(F)F)cc3)c(=O)c3c2CCCC3)c1=O [Example 104, N-methyl-2-[2-oxo-3-[[4-oxo-3-[4-(trifluoromethoxy)phenyl]-5,6,7,8-tetrahydrophthalazin-1-yl]amino]-1-pyridyl]acetamide]	0.039
CN(C)CCn1cccc(Nc2nn(-c3ccc(OC(F)(F)F)cc3)c(=O)c3ccccc23)c1=O [Example 70, 4-[[1-[2-(dimethylamino)ethyl]-2-oxo-3-pyridyl]amino]-2-[4-(trifluoromethoxy)phenyl]phthalazin-1-one]	0.019
Cn1cccc(Nc2nn(-c3ccc(C(C)(C)O)cc3)c(=O)c3ccccc23)c1=O [Example 162, 2-[4-(1-Hydroxy-1-methyl-ethyl)phenyl]-4-[(1-methyl-2-oxo-3-pyridyl)amino]phthalazin-1-one]	1.4
COC(=O)c1cc(Nc2nn(-c3ccc(OC(F)(F)F)cc3)c(=O)c3c2CCCC3)c(=O)n(C)c1 [Example 23, methyl 1-methyl-6-oxo-5-[[4-oxo-3-[4-(trifluoromethoxy)phenyl]-5,6,7,8-tetrahydrophthalazin-1-yl]amino]pyridine-3-carboxylate]	0.712
CNC(=O)C(C)(C)Cn1cccc(Nc2nn(-c3ccc(OC(F)(F)F)cc3)c(=O)c3ccccc23)c1=O [Example 99, N,2,2-trimethyl-3-[2-oxo-3-[[4-oxo-3-[4-(trifluoromethoxy)phenyl]phthalazin-1-yl]amino]-1-pyridyl]propanamide]	0.291
Cn1cccc(Nc2nn(-c3ccc(OC(F)(F)F)cc3)c(=O)c3c2CCN(S(C)(=O)=O)C3)c1=O [Example 156, 1-[(1-Methyl-2-oxo-3-pyridyl)amino]-6-methylsulfonyl-3-[4-(trifluoromethoxy)phenyl]-7,8-dihydro-5H-pyrido[3,4-d]pyridazin-4-one]	0.266
COc1cc(-n2nc(Nc3cccn(C)c3=O)c3c(c2=O)CCC3)ccc1C(F)(F)F [Example 173, 3-[3-Methoxy-4-(trifluoromethyl)phenyl]-1-[(1-methyl-2-oxo-3-pyridyl)amino]-6,7-dihydro-5H-cyclopenta[d]pyridazin-4-one]	74.6
Cn1cc(C(F)(F)F)cc(Nc2nn(-c3ccc(OC(F)(F)F)cc3)c(=O)c3ccccc23)c1=O [Example 176, 4-[[1-methyl-2-oxo-5-(trifluoromethyl)-3-pyridyl]amino]-2-[4-(trifluoromethoxy)phenyl]phthalazin-1-one]	80.5
O=C(O)CCCn1cccc(Nc2nn(-c3ccc(OC(F)(F)F)cc3)c(=O)c3c2CCC3)c1=O [Example 118, 4-[2-oxo-3-[[4-oxo-3-[4-(trifluoromethoxy)phenyl]-6,7-dihydro-5H-cyclopenta[d]pyridazin-1-yl]amino]-1-pyridyl]butanoic acid]	0.953
CNC(=O)c1cc(Nc2nn(-c3ccc(OC(F)(F)F)cc3)c(=O)c3ccccc23)c(=O)n(C)c1 [Example 175, N,1-Dimethyl-6-oxo-5-[[4-oxo-3-[4-(trifluoromethoxy)phenyl]phthalazin-1-yl]amino]pyridine-3-carboxamide]	74.4
Cn1cccc(Nc2nn(-c3ccc(OC(F)(F)F)cc3)c(=O)c3c2COCC3)c1=O [Example 63, 4-[(1-methyl-2-oxo-3-pyridyl)amino]-2-[4-(trifluoromethoxy)phenyl]-7,8-dihydro-5H-pyrano[3,4-d]pyridazin-1-one]	0.033
O=C(O)C1COCCN1CCn1cccc(Nc2nn(-c3ccc(OC(F)(F)F)cc3)c(=O)c3c2CCC3)c1=O (stereo not drawn) [Example 123, 4-[2-[2-oxo-3-[[4-oxo-3-[4-(trifluoromethoxy)phenyl]-6,7-dihydro-5H-cyclopenta[d]pyridazin-1-yl]amino]-1-pyridyl]ethyl]morpholine-3-carboxylic acid]	0.485

SMILES	IC50 [µM]
Cc1cc(OC(F)(F)F)ccc1-n1nc(Nc2cccn(C)c2=O)c2c(c1=O)CCC2 [Example 171, 1-[(1-Methyl-2-oxo-3-pyridyl)amino]-3-[2-methyl-4-(trifluoromethoxy)phenyl]-6,7-dihydro-5H-cyclopenta[d]pyridazin-4-one]	6.83
CN(C)C(=O)CCn1cccc(Nc2nn(-c3ccc(OC(F)(F)F)cc3)c(=O)c3ccccc23)c1=O [Example 96, N,N-dimethyl-3-[2-oxo-3-[[4-oxo-3-[4-(trifluoromethoxy)phenyl]phthalazin-1-yl]amino]-1-pyridyl]propanamide]	0.042
Cn1cccc(Nc2nn(-c3ccc(C4COC4)cc3)c(=O)c3ccccc23)c1=O [Example 11, 4-[(1-methyl-2-oxo-3-pyridyl)amino]-2-[4-(oxetan-3-yl)phenyl]phthalazin-1-one]	2.01
Cn1cccc(Nc2nn(-c3ccc(OC(F)(F)F)cc3)c(=O)c3cc(O)ccc23)c1=O [Example 125, 7-Hydroxy-4-[(1-methyl-2-oxo-3-pyridyl)amino]-2-[4-(trifluoromethoxy)phenyl]phthalazin-1-one]	0.088
Cc1cc(OC(F)(F)F)ccc1-n1nc(Nc2cccn(C)c2=O)c2ccccc2c1=O [Example 7, 4-[(1-methyl-2-oxo-3-pyridyl)amino]-2-[2-methyl-4-(trifluoromethoxy)phenyl]phthalazin-1-one]	4.34
CNC(=O)Cn1cccc(Nc2nn(-c3ccc(OC(F)(F)F)cc3)c(=O)c3ccccc23)c1=O [Example 91, N-methyl-2-[2-oxo-3-[[4-oxo-3-[4-(trifluoromethoxy)phenyl]phthalazin-1-yl]amino]-1-pyridyl]acetamide]	0.041
Cn1cccc(Nc2nn(-c3ccc(C(C)(C)C)cc3F)c(=O)c3c2CCC3)c1=O [Example 53, 3-(4-tert-butyl-2-fluoro-phenyl)-1-[(1-methyl-2-oxo-3-pyridyl)amino]-6,7-dihydro-5H-cyclopenta[d]pyridazin-4-one]	0.024
COC(=O)Cn1cccc(Nc2nn(-c3ccc(OC(F)(F)F)cc3)c(=O)c3ccccc23)c1=O [Example 3, methyl 2-[2-oxo-3-[[4-oxo-3-[4-(trifluoromethoxy)phenyl]phthalazin-1-yl]amino]-1-pyridyl]acetate]	0.038
O=C(O)CCCn1cncc(Nc2nn(-c3ccc(OC(F)(F)F)cc3)c(=O)c3c2CCC3)c1=O [Example 124, 4-[6-oxo-5-[[4-oxo-3-[4-(trifluoromethoxy)phenyl]-6,7-dihydro-5H-cyclopenta[d]pyridazin-1-yl]amino]pyrimidin-1-yl]butanoic acid]	4.93
CN(C)C(=O)COCCn1cccc(Nc2nn(-c3ccc(OC(F)(F)F)cc3)c(=O)c3ccccc23)c1=O [Example 103, N,N-dimethyl-2-[2-[2-oxo-3-[[4-oxo-3-[4-(trifluoromethoxy)phenyl]phthalazin-1-yl]amino]-1-pyridyl]ethoxy]acetamide]	0.038
CC(=O)N1CCc2c(Nc3cc(F)cn(C)c3=O)nn(-c3ccc(OC(F)(F)F)cc3)c(=O)c2C1 [Example 87, 6-acetyl-1-[(5-fluoro-1-methyl-2-oxo-3-pyridyl)amino]-3-[4-(trifluoromethoxy)phenyl]-7,8-dihydro-5H-pyrido[3,4-d]pyridazin-4-one]	0.017
CC(=O)N1CCc2c(c(Nc3cccn(C)c3=O)nn(-c3ccc(OC(F)(F)F)cc3)c2=O)C1 [Example 149, 6-Acetyl-4-[(1-methyl-2-oxo-3-pyridyl)amino]-2-[4-(trifluoromethoxy)phenyl]-7,8-dihydro-5H-pyrido[3,4-d]pyridazin-1-one]	0.071
Cn1cccc(Nc2nn(-c3ccc(OC(F)(F)F)cc3)c(=O)c3c2CCNC3)c1=O [Example 134, 1-[(1-Methyl-2-oxo-3-pyridyl)amino]-3-[4-(trifluoromethoxy)phenyl]-5,6,7,8-tetrahydropyrido[3,4-d]pyridazin-4-one]	0.521
O=C(O)C1CCCN1CCn1cccc(Nc2nn(-c3ccc(OC(F)(F)F)cc3)c(=O)c3c2CCC3)c1=O (stereo not drawn) [Example 121, 1-[2-[2-oxo-3-[[4-oxo-3-[4-(trifluoromethoxy)phenyl]-6,7-dihydro-5H-1-yl]amino]-1-pyridyl]ethyl]pyrrolidine-2-carboxylic acid]	0.156
Cn1cccc(Nc2nn(-c3ccc(OC(F)(F)F)cc3)c(=O)c3c2CC(O)CC3)c1=O (stereo not drawn) [Example 165, 6-hydroxy-4-[(1-methyl-2-oxo-3-pyridyl)amino]-2-[4-(trifluoromethoxy)phenyl]-5,6,7,8-tetrahydrophthalazin-1-one]	0.024
O=c1c(Nc2nn(-c3ccc(OC(F)(F)F)cc3)c(=O)c3ccccc23)cccn1CCN1CCC(O)C1 (stereo not drawn) [Example 78, 4-[[1-[2-(3-hydroxypyrrolidin-1-yl)ethyl]-2-oxo-3-pyridyl]amino]-2-[4-(trifluoromethoxy)phenyl]phthalazin-1-one]	0.031

From patent US10597380B2, “Pyridazinone-based broad spectrum anti-influenza inhibitors” (Hoffmann-La Roche Inc., priority 2017, dated 2020)
